The target in one assay is T1, RIPK1 kinase (Homo sapiens, UniProt Q13546).
T1 construct: purchased Promega VA7593
T1 sequence (Q13546 1-671): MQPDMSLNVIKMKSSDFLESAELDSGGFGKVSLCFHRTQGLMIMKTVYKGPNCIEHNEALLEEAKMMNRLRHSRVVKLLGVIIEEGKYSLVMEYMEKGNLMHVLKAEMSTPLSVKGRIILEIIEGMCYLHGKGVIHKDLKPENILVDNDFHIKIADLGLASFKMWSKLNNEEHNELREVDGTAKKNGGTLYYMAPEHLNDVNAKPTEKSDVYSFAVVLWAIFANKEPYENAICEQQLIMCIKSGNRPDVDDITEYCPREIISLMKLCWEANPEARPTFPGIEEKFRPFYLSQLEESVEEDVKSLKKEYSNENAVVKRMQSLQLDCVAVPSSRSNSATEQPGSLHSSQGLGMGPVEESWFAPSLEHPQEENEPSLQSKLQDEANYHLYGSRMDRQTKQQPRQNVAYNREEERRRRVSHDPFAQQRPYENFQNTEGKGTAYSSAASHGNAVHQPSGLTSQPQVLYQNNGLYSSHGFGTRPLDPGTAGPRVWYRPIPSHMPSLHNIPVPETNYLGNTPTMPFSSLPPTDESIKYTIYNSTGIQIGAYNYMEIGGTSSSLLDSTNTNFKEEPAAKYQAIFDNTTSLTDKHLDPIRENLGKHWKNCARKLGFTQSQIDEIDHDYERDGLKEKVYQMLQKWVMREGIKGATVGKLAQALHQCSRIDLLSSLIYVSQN
Briefly: In vitro RIPK1 kinase activity assay (ADP-Glo), inhibition by compounds at 1 μM. The class given is biochemical. The settings on record: compound 1 μM; ATP 10 μM; MBP substrate 100 μg/mL; read-out: RIPK1 kinase activity inhibition rate range. Here is the method:
RIPK1 kinase activity was assayed using the ADP-Glo assay and RIPK1 kinase reaction system (Promega, catalog number: VA7593). The RIPK1 kinase activity assay was performed according to the Promega kit manual.
The experimental method was briefly described as below. The concentration of RIPK1 kinase in the RIPK1 kinase reaction system was determined by kinase titration and S/B10. Compounds were diluted with 1× kinase buffer D (1% DMSO), and 1 μL of 100 μM compound DMSO stock solution was added to 19 μL 1× kinase buffer D. RIPK1 kinase was diluted with 1× kinase buffer D. 2.5×ATP/substrate was diluted with 1× kinase buffer D. The final concentration of ATP in the kinase reaction system was 10 μM, and the final concentration of MBP substrate was 100 μg/mL. 1 μL of diluted compound and 2 μL of diluted RIPK1 kinase were mixed, incubated at room temperature for 15 minutes, 2 μL of 2.5×ATP/substrate was added, mixed, and incubated at room temperature for 1 hour. 5 μL of ADP-Glo reagent was added to each well and incubated at room temperature for 1 hour. 10 μL of ADP detection reagent was added to each well and incubated at room temperature for another 0.5-1 hour. The chemiluminescent signal was read by a microplate reader and the inhibition rate of kinase activity was calculated.

The test system of assay [1] is U937 cells. Briefly: Inhibition rate of compound (1 μM) on necroptosis of U937 cells (TSZ-induced, CellTiter-Glo). It is filed as cell-based. The settings on record: TSZ (hTNF-α, SM-164, Z-VAD-FMK) 20 hours. On the procedure:
(§1) The biological activity of RIPK1 inhibitors was further evaluated in the inhibition of necroptosis in U937 cells. U937 cell line was purchased from Huatuo Biotechnology and stored in liquid nitrogen. U937 cells were revived before the experiment and cultured in RPMI-1640 medium (supplemented with 10% fetal bovine serum, 100 U/mL penicillin and 100 μg/mL streptomycin) at 37° C., 5% CO2. The activity was further evaluated by the cellular ATP level detected by the Promega CellTiter-Glo 2.0 Assay cell viability assay kit (Catalog No.: G9242).
The experimental method was briefly described as below. U937 cells in the logarithmic growth phase were collected by centrifugation. Cells were diluted at the density of 5×10^5 cells/mL with RPMI 1640 medium (supplemented with 10% fetal bovine serum, 100 U/mL penicillin and 100 μg/mL streptomycin). The cell suspension was added to a white sterile 384-well cell culture plate at 15 μL/well. The test compound was dissolved in DMSO to prepare a 10 mM stock solution and diluted to 10 μM with culture medium. At the same time, a control with the same DMSO volume was set up. Two replicates were added for each concentration. The diluted compound was added to the 384-well cell culture plate containing cells at 2.5 µL/well and incubated at 37° C., 5% CO2 for 15 minutes. Z-VAD-FMK (Biyuntian, catalog number: C1202-5 mg) was dissolved in DMSO to prepare a 20 mM stock solution. SM-164 (Biyuntian, catalog number: SC0114-10 mM) was dissolved in DMSO to prepare a 10 mM stock solution and diluted to 0.1 mM. hTNF-α (Sino Biological Inc., catalog number: 10602-HNAE) was dissolved in sterile water to 10 μg/mL. RPMI 1640 medium (supplemented with 10% fetal bovine serum, 100 U/mL penicillin and 100 μg/mL streptomycin) was used to prepare the TSZ mixture, containing 133.3 μM Z-VAD-FMK, 33.3 ng/ml hTNF-α and 0.3 μM SM-164. After 15 minutes' coculture of compounds and cells, 7.5 μL of TSZ mixture was added to each well, mixed evenly, and cultured at 37° C., 5% CO2 for 20 hours. After 20 hours, the culture plate was removed and placed at room temperature for 30 minutes. 10 μL of CellTiter-Glo reagent pre-equilibrated at room temperature was added to each well and incubated for 10 minutes from light. The chemiluminescence was read by a microplate reader. The inhibition rate was calculated as Inh %=(1−(no TSZ-TSZ & compound)/(no TSZ-TSZ))×100.

Assay [2] relates to U937 cells. Briefly: EC50 of necroptosis inhibition in U937 cells (TSZ-induced, CellTiter-Glo). The class given is cell-based. The settings on record: Homo sapiens, U-937; TSZ (hTNF-α, SM-164, Z-VAD-FMK) 20 hours; 10 concentration points; read-out: EC50 intervals of necroptosis inhibition in U937 cells. On the procedure: as §1
The experimental method was briefly described as below. U937 cells in the logarithmic growth phase were collected by centrifugation. Cells were diluted to the cell density of 5×10^5 cells/mL with RPMI 1640 medium (supplemented with 10% fetal bovine serum, 100 U/mL penicillin and 100 μg/mL streptomycin). Cell suspension was added to a white sterile 384-well cell culture plate at 15 μL/well. The test compound was dissolved in DMSO to prepare a 10 mM stock solution. The compound was serially diluted with culture medium at a ratio of 1:3, for a total of 10 concentration points. A control with the same DMSO volume was set, with two replicates for each concentration. The diluted compound was added to the 384-well cell culture plate containing cells at 2.5 μL/well and incubated at 37° C., 5% CO2 for 15 minutes. Z-VAD-FMK (Biyuntian, catalog number: C1202-5 mg) was dissolved in DMSO to prepare a 20 mM stock solution. SM-164 (Biyuntian, catalog number: SC0114-10 mM) was dissolved in DMSO to prepare a 10 mM stock solution and diluted to 0.1 mM. hTNF-α (Sino Biological Inc., catalog number: 10602-HNAE) was dissolved in sterile water to 10 μg/mL. RPMI 1640 medium (supplemented with 10% fetal bovine serum, 100 U/mL penicillin and 100 μg/mL streptomycin) was used to prepare the TSZ mixture, containing 133.3 μM Z-VAD-FMK, 33.3 ng/ml hTNF-α and 0.3 μM SM-164. After 15 minutes' coculture of compounds and cells, 7.5 μL of TSZ mixture was added to each well, mixed evenly, and cultured at 37° C., 5% CO2 for 20 hours. After 20 hours, the culture plate was removed and placed at room temperature for 30 minutes. Then, 10 μL of CellTiter-Glo reagent pre-equilibrated at room temperature was added to each well and incubated. After 10 minutes' incubation at room temperature in the dark, the chemiluminescence were measured using a microplate reader. The inhibition rate was calculated as Inh %=(1−(no TSZ-TSZ & compound)/(no TSZ-TSZ))×100. The EC50 was obtained by fitting the nonlinear regression curve log [inhibitor] vs. response−variable slope (four parameters) in GraphPad Prism.

As for `C[C@@H](NC(=O)C(=O)N[C@H]1COc2ccc(C#CCN3CCN(CCOCCOCCOCCC(=O)Nc4cccc5c4CN(C4CCC(=O)NC4=O)C5=O)CC3)cc2N(C)C1=O)c1ccccc1` (mixture of isomers) [Example 164, N^1-((3S)-7-(3-(4-(2-(2-(2-(3-((2-(2,6-dioxopiperidin-3-yl)-1-oxoisoindolin-4-yl)amino)-3-oxopropoxy)ethoxy)ethoxy)ethyl)piperazin-1-yl)prop-1-yn-1-yl)-5-methyl-4-oxo-2,3,4,5-tetrahydrobenzo[b][1,4]oxazepin-3-yl)-N^2-((R)-1-phenylethyl)oxalamide], on RIPK1 kinase, the inhibition at 1 µM was at least 75%. Moreover, the “Inhibition rate range of compounds (1 μM) on U937 cell necroptosis” value (“Inhibition rate range of compounds” for short) in the assay on U937 cells [1] was “A (A: ≥90%)”. Also, in the assay with U937 cells [2], the EC50 lay within 100 to 500 nM.
As to `CN1C(=O)[C@@H](NC(=O)C(=O)NCCc2ccccc2)COc2ccc(Br)cc21` [Example 1, (S)—N^1-(7-bromo-5-methyl-4-oxo-2,3,4,5-tetrahydrobenzo[b][1,4]oxazepin-3-yl)-N^2-phenethyloxalamide], the inhibition at 1 µM on RIPK1 kinase is 50 to 74%. Also, the “Inhibition rate range of compounds” value in the assay with U937 cells [1] is recorded as “A (A: ≥90%)”. In the assay on U937 cells [2], the EC50 was 100 to 500 nM.
Take `CN1C(=O)[C@@H](NC(=O)C(=O)NCCc2ccccc2)COc2ccc(C#CC3CC3)cc21` [Example 2, (S)—N^1-(7-(cyclopropylethynyl)-5-methyl-4-oxo-2,3,4,5-tetrahydrobenzo[b][1,4]oxazepin-3-yl)-N^2-phenethyloxalamide]: the inhibition at 1 µM on RIPK1 kinase was at least 75%. For the same molecule, the “Inhibition rate range of compounds” value with U937 cells [1] is listed as “A (A: ≥90%)”. Also, in the assay with U937 cells [2], the EC50 is below 100 nM.
As to `CN1C(=O)[C@@H](NC(=O)C(=O)NCCc2ccccc2)COc2cc(Br)ccc21` [Example 3, (S)—N^1-(8-bromo-5-methyl-4-oxo-2,3,4,5-tetrahydrobenzo[b][1,4]oxazepin-3-yl)-N^2-phenethyloxalamide], on RIPK1 kinase, the inhibition at 1 µM is at least 75%. In the assay on U937 cells [1], the “Inhibition rate range of compounds” value is “A (A: ≥90%)”. Also, the EC50 in the assay with U937 cells [2] is 500 to 2000 nM.
The matching figures for `CN1C(=O)[C@@H](NC(=O)C(=O)NCCc2ccccc2)COc2cc(O)ccc21` [Example 5, (S)—N^1-(8-hydroxy-5-methyl-4-oxo-2,3,4,5-tetrahydrobenzo[b][1,4]oxazepin-3-yl)-N^2-phenethyloxalamide]: at least 75%, “A (A: ≥90%)” and 100 to 500 nM.
On to `CN1C(=O)[C@@H](NC(=O)C(=O)NCCc2ccccc2)COc2ccc(O)cc21` [Example 6, (S)—N^1-(7-hydroxy-5-methyl-4-oxo-2,3,4,5-tetrahydrobenzo[b][1,4]oxazepin-3-yl)-N^2-phenethyloxalamide], for which the inhibition at 1 µM at RIPK1 kinase was 50 to 74%. In the assay on U937 cells [1], the “Inhibition rate range of compounds” value is reported as “A (A: ≥90%)”. In addition, the half-maximal effective concentration (EC50) with U937 cells [2] lay in the range of 100 to 500 nM.
For `COc1ccc2c(c1)N(C)C(=O)[C@@H](NC(=O)C(=O)NCCc1ccccc1)CO2` [Example 8, (S)—N^1-(7-methoxy-5-methyl-4-oxo-2,3,4,5-tetrahydrobenzo[b][1,4]oxazepin-3-yl)-N^2-phenethyloxalamide], the inhibition at 1 µM at RIPK1 kinase is at least 75%. Besides, the “Inhibition rate range of compounds” value in the assay with U937 cells [1] was “A (A: ≥90%)”. Moreover, in the assay with U937 cells [2], the concentration giving a half-maximal response (EC50) was 100 to 500 nM.
For the molecule `C=CCOc1ccc2c(c1)N(C)C(=O)[C@@H](NC(=O)C(=O)NCCc1ccccc1)CO2` [Example 9, (S)—N^1-(7-(allyloxy)-5-methyl-4-oxo-2,3,4,5-tetrahydrobenzo[b][1,4]oxazepin-3-yl)-N^2-phenethyl oxalamide], at RIPK1 kinase, the inhibition at 1 µM was at least 75%. Also, in the assay on U937 cells [1], the “Inhibition rate range of compounds” value is “A (A: ≥90%)”. Moreover, in the assay with U937 cells [2], the EC50 fell in the range of 100 to 500 nM.
With `CN1C(=O)[C@@H](NC(=O)C(=O)NCCc2ccccc2F)COc2ccccc21` [Example 99, (S)—N^1-(2-fluorophenethyl)-N^2-(5-methyl-4-oxo-2,3,4,5-tetrahydrobenzo[b][1,4]oxazepin-3-yl)oxalamide], the inhibition at 1 µM on RIPK1 kinase was in the range of 50 to 74%. Also, in the assay on U937 cells [1], the “Inhibition rate range of compounds” value is given as “B (B: 50-89%)”.
`CN1C(=O)[C@@H](NC(=O)C(=O)NCCc2cccc(Cl)c2)COc2ccccc21` [Example 101, (S)—N^1-(3-chlorophenethyl)-N^2-(5-methyl-4-oxo-2,3,4,5-tetrahydrobenzo[b][1,4]oxazepin-3-yl)oxalamide]: on RIPK1 kinase, the inhibition at 1 µM was 25 to 49%.
In the case of `CN1C(=O)[C@@H](NC(=O)C(=O)NCCOc2ccccc2)COc2ccccc21` [Example 103, (S)—N^1-(5-methyl-4-oxo-2,3,4,5-tetrahydrobenzo[b][1,4]oxazepin-3-yl)-N^2-(2-phenoxyethyl)oxalamide], the inhibition at 1 µM on RIPK1 kinase lay within 25 to 49%. For the same molecule, in the assay with U937 cells [2], the EC50 was 500 to 2000 nM.

Source of the values: patent US20250368633A1, “AZEPINE FUSED RING COMPOUND AS RIPK1 INHIBITOR AND USE THEREOF” (ARTIVILA BIOPHARMA, priority 2022, published 2025).
